# In patent US20240409585A1, “MACROCYCLIC IMMUNOMODULATORS” (priority 2021, published 2024):
# Bridge positions count the residues as written; N and C are the ends. Square brackets hold non-standard residues; d marks the D form. Peptide text beside a SMILES is read from it. * marks the point of attachment. ξ: configuration not given here. Bip = N[C@@H](Cc1ccc(-c2ccccc2)cc1)C(=O)O; Cit = NC(=O)NCCC[C@H](N)C(=O)O; Thr(3ξ) = CC(O)[C@H](N)C(=O)O; hSer = N[C@@H](CCO)C(=O)O; Carboxymethyl = O=C(O)C*; NMeA = CN[C@@H](C)C(=O)O; Bn = c1ccc(C*)cc1
# Target: T1, PE-labeled human PD-L1-Ig binding to Jurkat cell line over-expressing human PD-1 (Jurkat-PD-1) (Homo sapiens, UniProt Q15116)
# T1 construct: expressed in transfected cells; host or cells: Jurkat
# Test: Jurkat-PD-1 Cell Binding High-Content Screening Assay (CBA): Method 1
# Settings: Jurkat HPDL1 PD1 IC50 (uM) (Method 1), Jurkat-hPD-1 cells, PE-labeled PD-L1-Ig 20 nM final
# T1 sequence (Q15116 25-288): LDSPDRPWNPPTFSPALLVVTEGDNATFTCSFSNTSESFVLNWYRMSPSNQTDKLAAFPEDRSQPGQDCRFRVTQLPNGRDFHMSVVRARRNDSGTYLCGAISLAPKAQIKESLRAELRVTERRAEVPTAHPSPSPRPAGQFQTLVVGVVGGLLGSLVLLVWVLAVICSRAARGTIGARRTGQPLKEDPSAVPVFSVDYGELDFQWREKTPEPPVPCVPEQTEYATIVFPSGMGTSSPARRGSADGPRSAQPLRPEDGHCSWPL
row,Structure (SMILES),IC50 [µM]
1,CC(C)C[C@@H]1NC(=O)[C@H](Cc2c[nH]c3ccccc23)NC(=O)[C@H](CC(=O)O)NC(=O)[C@H](Cc2ccc(OCC(=O)O)cc2)NC(=O)[C@H](Cc2ccccc2)NC(=O)CSC[C@@H](C(=O)N[C@@H](C)C(N)=O)NC(=O)[C@H](CO)NC(=O)[C@H](C(C)C)NC(=O)[C@H](CC(C)C)NC(=O)[C@H](CC(N)=O)NC(=O)[C@@H](CC(C)C)NC(=O)[C@H](C)N(C)C(=O)[C@H](C(C)C)NC(=O)[C@H](Cc2ccc(OCc3ccccc3)cc2)NC1=O [Compound 2028] ({CH2CO}-FY(Carboxymethyl)DWLY(Bn)V[NMeA][dL]NLVSCA-NH2; thioether N-14),0.48

# Same assay, conditions: Jurkat-hPD-1 cells, PE-labeled PD-L1-Ig 20 nM final; read-out: Jurkat HPDL1 PD1 IC50 (uM) (Method 1)
row,IC50 [µM],Structure (SMILES)
1,0.02,CC(C)C[C@@H]1NC(=O)[C@H](Cc2c[nH]c3ccccc23)NC(=O)[C@H](CC(=O)O)NC(=O)[C@H](Cc2ccc(OCC(=O)O)cc2)NC(=O)[C@H](Cc2ccccc2)NC(=O)CSC[C@@H](C(=O)N[C@@H](C)C(N)=O)NC(=O)[C@H](CO)NC(=O)[C@H](C(C)C)NC(=O)[C@H](CC(C)C)NC(=O)[C@H](CC(=O)O)NC(=O)[C@@H](CC(C)C)NC(=O)[C@H](C)N(C)C(=O)[C@H](C(C)C)NC(=O)[C@H](Cc2ccc(-c3ccccc3)cc2)NC1=O [Compound 2027] ({CH2CO}-FY(Carboxymethyl)DWL[Bip]V[NMeA][dL]DLVSCA-NH2; thioether N-14)
2,0.04,CC(C)C[C@@H]1NC(=O)[C@H](Cc2c[nH]c3ccccc23)NC(=O)[C@H](CC(=O)O)NC(=O)[C@H](Cc2ccc(OCC(=O)O)cc2)NC(=O)[C@H](Cc2ccccc2)NC(=O)CSC[C@@H](C(=O)N[C@@H](C)C(N)=O)NC(=O)[C@H](CO)NC(=O)[C@H](C(C)C)NC(=O)[C@H](CC(C)C)NC(=O)[C@H](CC(N)=O)NC(=O)[C@@H](CC(C)C)NC(=O)[C@H](C)N(C)C(=O)[C@H](CC(=O)O)NC(=O)[C@H](Cc2ccc(-c3ccccc3)cc2)NC1=O [Compound 2029] ({CH2CO}-FY(Carboxymethyl)DWL[Bip]D[NMeA][dL]NLVSCA-NH2; thioether N-14)
3,0.03,CC(C)C[C@@H]1NC(=O)[C@H](Cc2c[nH]c3ccccc23)NC(=O)[C@H](CC(=O)O)NC(=O)[C@H](Cc2ccc(OCC(=O)O)cc2)NC(=O)[C@H](Cc2ccccc2)NC(=O)CSC[C@@H](C(=O)N[C@@H](C)C(N)=O)NC(=O)[C@H](CO)NC(=O)[C@H](C(C)C)NC(=O)[C@H](CC(C)C)NC(=O)[C@H](CC(N)=O)NC(=O)[C@@H](CC(C)C)NC(=O)[C@H](C)N(C)C(=O)[C@H](CCCCN)NC(=O)[C@H](Cc2ccc(-c3ccccc3)cc2)NC1=O [Compound 2030] ({CH2CO}-FY(Carboxymethyl)DWL[Bip]K[NMeA][dL]NLVSCA-NH2; thioether N-14)
4,0.07,CC(C)C[C@@H]1NC(=O)[C@H](CC(N)=O)NC(=O)[C@@H](CC(C)C)NC(=O)[C@H](C)N(C)C(=O)[C@H](CCCNC(N)=O)NC(=O)[C@H](Cc2ccc(-c3ccccc3)cc2)NC(=O)[C@H](C(C)C)NC(=O)[C@H](Cc2c[nH]c3ccccc23)NC(=O)[C@H](CC(=O)O)NC(=O)[C@H](Cc2ccc(O)cc2)NC(=O)[C@H](Cc2ccccc2)NC(=O)CSC[C@@H](C(=O)N[C@@H](C)C(N)=O)NC(=O)[C@H](C(C)O)NC(=O)[C@H](C(C)C)NC1=O (stereo partly drawn) [Compound 2031] ({CH2CO}-FYDWV[Bip][Cit][NMeA][dL]NLV[Thr(3ξ)]CA-NH2; thioether N-14)
5,0.05,CC(C)C[C@@H]1NC(=O)[C@H](CCO)NC(=O)[C@@H](CC(C)C)NC(=O)[C@H](C)N(C)C(=O)[C@H](CCCNC(N)=O)NC(=O)[C@H](Cc2ccc(-c3ccccc3)cc2)NC(=O)[C@H](C(C)C)NC(=O)[C@H](Cc2c[nH]c3ccccc23)NC(=O)[C@H](CC(=O)O)NC(=O)[C@H](Cc2ccc(O)cc2)NC(=O)[C@H](Cc2ccccc2)NC(=O)CSC[C@@H](C(=O)N[C@@H](C)C(N)=O)NC(=O)[C@H](C(C)O)NC(=O)[C@H](C(C)C)NC1=O (stereo partly drawn) [Compound 2032] ({CH2CO}-FYDWV[Bip][Cit][NMeA][dL][hSer]LV[Thr(3ξ)]CA-NH2; thioether N-14)
